# Structures can show the parent of a compound that is named as a salt.
row,SMILES,melting point [°C]
1,"Clc1ccc(CNc2ccnc(NCc3ccc(Cl)c(Cl)c3)n2)cc1Cl (as salt: HCl) [Example 4, N^2,N^4-Bis(3,4-dichlorobenzyl)pyrimidine-2,4-diamine]",167 to 170
2,"CC(Nc1ccnc(NC(C)c2ccc(F)cc2)n1)c1ccc(F)cc1 (stereo not drawn) (as salt: HCl) [Example 5, N^2,N^4-Bis[1-(4-fluorophenyl)ethyl]pyrimidine-2,4-diamine]",151 to 154
3,"Clc1ccc(CCNc2ccnc(NCCc3ccc(Cl)cc3)n2)cc1 (as salt: HCl) [Example 11, N^2,N^4-Bis[2-(4-chlorophenyl)ethyl]pyrimidine-2,4-diamine]",201 to 204
4,"Clc1ccc(CNc2ccnc(NCc3ccc(Cl)cc3)n2)cc1 (as salt: HCl) [Example 7, N^2,N^4-Bis(4-chlorobenzyl)pyrimidine-2,4-diamine]",213 to 216
5,"FC(F)(F)c1cccc(CNc2ccnc(NCc3cccc(C(F)(F)F)c3)n2)c1 (as salt: HCl) [Example 3, N^2,N^4-Bis[3-(trifluoromethyl)benzyl]pyrimidine-2,4-diamine]",172
6,"Fc1ccc(CCNc2ccnc(NCCc3ccc(F)cc3)n2)cc1 (as salt: HCl) [Example 10, N^2,N^4-Bis[2-(4-fluorophenyl)ethyl]pyrimidine-2,4-diamine]",177.4 to 179.4

# — patent publication US20090124645A1, “Novel Pyrimidine-2,4-Diamine Derivatives and their Use as Modulators of Small-Conductance Calcium-Activated Potassium Channels” (NeuroSearch A/S, priority 2005, published 2009)
